{
  "source": "patent US9000027B2",
  "about": "“Chk1 suppresses a caspase-2 apoptotic response to DNA damage that bypasses p53, bcl-2 and caspase-3” (Dana-Farber Cancer Institute, Inc., priority 2008, dated 2015)",
  "key": {"human cancer cell lines": {"test_system": "human cancer cell lines", "assay": "Annexin V (+)/PI (-) apoptosis assay in human cancer cell lines", "assay_type": "cell-based", "experimental": "For the Annexin V assay, 2.0×10^5 cells treated with IR (0 or 10 Gy) and/or Gö6976 (0 or 1 μM) for 48 h were washed with cold-PBS and resuspended in staining buffer containing propidium iodide (PI) and fluorescein isothiocynate (FITC)-conjugated anti-AnnexinV antibody (MEBCYTO apoptosis kit, MBL international, MA). After 30 min incubation at room temperature, cells were analyzed by flow cytometry (FACScaliber, BD Bioscience, San Jose, Calif.) and CellQuest analysis program (BD Bioscience). The cells in PI-negative and AnnexinV-positive fraction were evaluated as apoptosis. Data were collected from two independent experiments in which each condition (shRNA, presence or absence of Gö6976) was analyzed in triplicate."}, "caspase-3": {"test_system": "caspase-3", "assay": "Western blot of cleaved caspase-3 in HeLa cells", "assay_type": "cell-based, human", "details": "10 Gy, 24 hpIR, Gö6976 1 μM", "experimental": "(§1) Protein extract (5-60 μg) was added to 4× gel loading buffer and 10× denaturing solution (Invitrogen) in appropriate proportions, and samples were incubated at 70° C. for 10 min. Samples were run at 200V for 1 hr on a 4-12% Bis-tris gradient gel (Invitrogen). After electrophoresis, samples were transferred for 1.5 hr (350 mA) to a Nitrocellulose membrane (Millipore) using a submerged transfer apparatus (Bio-Rad). Membranes were then blocked with 5% milk in Tris-buffered saline with 0.1% tween (TBST) and probed overnight at 4° C. with the following antibodies: anti-zebrafish Chk1 (diluted 1:200), anti-zebrafish Chk2 (1:200), anti-P-Cdc2 (1:1000), anti-actin (1:2000), anti-human ATR (1:500) and Stressgen anti-human-caspase-3 (1:500) for zebrafish immunoblots; and anti-caspase-2 (1:200), Upstate anti-caspase-3 (1:500), anti-P-ATM (1:500), anti-ATM (1:500), Santa Cruz anti-human Chk1 (1:1000), Santa Cruz anti-human Chk2 (1:1000), anti-P-Chk1 (1:500), anti-P-Chk2 (1:500), anti-P-H2A.X (1:2000), anti-P-cdc25C (1:1000), anti-P-HSP27 (1:1000), anti-HSP27 (1:1000), anti-P-Cdc2 (1:1000), anti-p53 (1:1000) and anti-GAPDH (1:5000) for immunoblots of human tumor cell lysates. Detailed references for all primary antibodies can be found in the ‘Antibodies’ section elsewhere herein."}, "ATR": {"test_system": "ATR", "assay": "Western blot of ATR activity (Chk1 phosphorylation at Ser317) in HeLa cells", "assay_type": "cell-based, human", "details": "10 Gy IR+Gö6976 1 μM", "experimental": "as §1"}, "myeloid cells": {"test_system": "myeloid cells", "assay": "Quantification of myeloid cells (mpo/l-plastin in situ hybridization) in irradiated embryos", "assay_type": "in vivo, zebrafish", "details": "p53^e7/e7 background, IR, 28 hpf", "source_text": "FIG. 2 provides a series of fluorescent images, western blot images, in situ hybridization images and two sets of graphs as outlined below. chk1 knockdown radiosensitizes p53 mutants but is otherwise compatible with normal zebrafish development. (A) Fluorescence images of representative embryos of indicated genotypes+/−chk1 MO after 0- or 12.5-Gy IR. 5 bpmmMO, 5-base-pair mismatch MO. (B) Quantified AO responses of indicated genotypes with or without IR (12.5 Gy) and chk1 MO. Gray bars, p53^+/+ background; black bars, p53^e7/e7 background. AO staining was quantified in ≧8 embryos per condition, with ≧1000 embryos scored. All data are reported as means+/−SEM. ***P<0.0001 (two-tailed Student's t-test). […] (E) Fluorescence images of representative embryos of indicated genotypes. p53^e6 is the N168K mutation, corresponding to human residue 200. p53MO, MO against the p53 5′UTR. (F) Fluorescence images of live transgenic embryos injected with the indicated MOs at the 1-cell stage and expressing EGFP in the notochord (top, embryos photographed at 24 hpf) or in myeloid progenitors (bottom, embryos photographed at 16.5 hpf). […] (G) Quantification of myeloid cells in 28 hpf embryos generated as indicated (x-axis) and processed as in panel H. Gray bars, p53^+/+ background; black bars, p53^e7/e7 background. mpo/lplastin staining was quantified in 15 embryos per condition. […]"}},
  "data": [
    {"compound": "Cn1c2ccccc2c2c3c(c4c5ccccc5n(CCC#N)c4c21)CNC3=O", "note": "[Gö6976]", "values": [
      {"measurement": "apoptosis", "setting": "human cancer cell lines; TP53+/+ HCT116 cells, IR+Gö6976", "result": "moderate, yet significant increase in apoptosis"},
      {"measurement": "apoptosis versus single- or no-treatment controls", "setting": "human cancer cell lines; TP53 null or mutant lines, 10 Gy IR+Gö6976, 48 hpIR", "result": "increases in caspase-2 cleavage and apoptosis"},
      {"measurement": "levels of cleaved caspase-3", "setting": "caspase-3", "result": "negligible"},
      {"measurement": "phosphorylated Chk1 at Ser317 (readout for ATR activity)", "setting": "ATR", "result": "synergistic increases"}
    ]},
    {"compound": "chk1 MO: morpholino against zebrafish chk1 atg/5'UTR, aggcacagccattatgcaatcttcg (SEQ ID NO: 11) (AGGCACAGCCATTATGCAATCTTCG; all phosphorodiamidate morpholino (PMO))", "values": [
      {"measurement": "average reduction in myeloid cell numbers", "setting": "myeloid cells", "result": 2, "unit": "fold"}
    ]}
  ]
}
